Measurements as given in patent US20100292137A1, “Antibiotics and Methods For Producing Them” (priority 2006, published 2010).
Where two headings read alike, the source gives them in different places.

How the values were obtained:
[1] = system: M. tuberculosis; type: cell-based, Mycobacterium tuberculosis
[2] = system: M. tuberculosis; conditions: tlyA mutants 315-A, C-202 and C-211; cited from earlier work
[3] = system: M. tuberculosis rrl mutant C-401; type: cell-based, Mycobacterium tuberculosis

For `NCC[C@H](O)C(=O)N[C@@H]1C[C@H](N)[C@@H](O[C@H]2O[C@H](CN)[C@@H](O)[C@H](O)[C@H]2O)[C@H](O)[C@H]1O[C@H]1O[C@H](CO)[C@@H](O)[C@H](N)[C@H]1O` [amikacin], the susceptibility [1] is listed as “susceptible” and the susceptibility [2] is listed as “susceptible”.
In the case of capreomycin, the “effect on growth rate” value [3] is reported as “do not noticeably slow the growth rate”.
